Measured values published in a melting point compilation (Tetko et al.).

SMILES	melting point [°C]
Cc1oc(C(=O)O)cc1S(=O)(=O)Cl	114 to 116
Cc1cc(C)c2c(=O)[nH]sc2n1	195 to 197
COc1ccc(C=CC(=O)O)cc1S(=O)(=O)N1CCOCC1	238 to 240
Nc1nc(-c2ccccc2OC(F)F)n[nH]1	188 to 190
Clc1nc(Br)n[nH]1	178 to 180
COc1ccc(C(=O)N2CCC(C(=O)O)CC2)c2ccccc12	254 to 257
Nc1cc(Cl)ccc1C(=O)N1CCCCC1CCO (configuration not stated)	115 to 117
COc1ccc(C)cc1-n1cc(C(=O)O)ccc1=O	244 to 246
O=[N+]([O-])c1cc(S(=O)(=O)N2CCCC2)ccc1Cl	96 to 100
Cc1nc(CO)oc1C	59 to 61
NNC(=O)c1cc2sccc2cn1	204 to 206
O=S(=O)(c1ccc2oc(S)nc2c1)N1CCOCC1	251 to 253
N#Cc1ccccc1Oc1ccc(N)cc1	118 to 120
O=C1CN(C(c2ccccc2)c2ccccc2)C1	78 to 80
O=C(O)C1CS(=O)(=O)c2ccccc2O1 (configuration not stated)	239 to 241
O=C(CCl)Nc1sc2c(c1C(=O)NCc1ccccc1)CCCC2	306 to 308
CCCn1c(C)c(C(=O)O)c2cc(OC)ccc21	171 to 173
O=C(O)COc1ccc(C2SCCCS2)cc1	201 to 203
COc1ccc2c(-c3cccnc3)cc(S)nc2c1	269 to 271
ClCC12CC3CC(CC(C3)C1)C2	38 to 42
CNC(=O)c1cc(NC)ccn1	114 to 116
O=C(Nc1ncccn1)C1CCNCC1	146 to 148
CCC1CCC2(CC1)NC(=O)NC2=O (configuration not stated)	230 to 232
COc1ccc(C=O)cc1OCC(N)=O	136 to 138

SMILES	melting point [°C]
Cc1cc(N)c(N)cc1C	127 to 129
CC(=O)c1nnn(-c2ccc(C)cc2)c1C	111 to 113
Cn1cc(Nc2cccc(C(=O)O)c2)cn1	218 to 220
O=S(=O)(CCN1CCC(O)CC1)c1ccc(Br)cc1	117 to 119
O=C1Nc2ccc(S(=O)(=O)Cl)cc2C1(Cl)Cl	134 to 136
O=C(NCCO)c1ccc(O)cc1	155 to 157
Cc1ccc(-n2c(SCC(=O)NN)nnc2-c2ccccc2)cc1	90 to 92
O=C(O)CNc1ccccc1Cl	173 to 175
Nc1cnc(Cl)c(C(=O)O)c1	193 to 195
O=C(O)c1cn(-c2ccccc2)nc1-c1cccnc1	238 to 240
COC(=O)c1c[nH]nn1	139 to 141
Cc1cccc(OC(C)C(=O)O)c1 (configuration not stated)	85 to 87
O=C(O)CC1CCCN1Cc1nc2ccccc2c(=O)[nH]1 (configuration not stated)	197 to 199
Nc1cc(Cl)cc(Br)c1OC(F)F	86 to 88
CC(C)C(NC(=O)c1ccncc1)C(=O)O (configuration not stated)	187 to 189
O=C(Nc1ccc2c(c1)OCO2)C(Cl)(Cl)Cl	99 to 101
CCC(=O)Nc1ccc(N)cc1	82 to 84
O=C(O)C1CCN(c2ccc(Cl)nn2)CC1	186 to 188
NC(=O)Nc1ccc(N)cc1	155 to 157
CCCn1ccnc1S	119 to 121
O=C1Nc2c(F)ccc(Cl)c2C1=O	279 to 281
CC(N)(C(N)=O)c1cccc(C(F)(F)F)c1 (configuration not stated)	84 to 86
Cc1ccccc1C(=O)NCCC(=O)O	110 to 112
O=S(=O)(Cl)c1ccc(OCC(F)F)c2ccccc12	115 to 117

SMILES	melting point [°C]
CCCNC(=O)CN(C)C(=O)CCl	212 to 217
ClCc1noc(-c2ccoc2)n1	77 to 79
Cc1cccc(N2CCN(Cc3ccc(N)cc3)CC2)c1	103 to 105
COC(=O)c1ccc(C(F)(F)F)cc1N	58 to 60
Cc1ccc(-c2cn[nH]c2)cc1	217 to 219
COc1c(F)ccc(F)c1C(=O)O	82 to 84
CCS(=O)(=O)c1ccc2oc(S)nc2c1	188 to 190
Nc1c(C(=O)O)ccnc1Br	224 to 226
Cc1ccc(Cl)c(NC(=O)C(C)Cl)c1Cl (configuration not stated)	149 to 151
NNc1c(Cl)cc(F)cc1Cl	109 to 111
O=C(O)c1cc(-c2ccc(Cl)cc2)nc2ccccc12	244 to 246
O=C1OCCc2cnc3nc(C(F)(F)F)nn3c21	185 to 187
CC(C)=CC(=O)Nc1scc(-c2ccccc2)c1C(=O)O	202 to 204
CNC(=O)c1ccc(N)cc1	177 to 179
Cc1ccc(NC(=O)c2cc(Cl)ccc2Cl)c(C(=O)O)c1	242 to 244
CCOC=C1C(=O)N(c2cccc(Cl)c2)C(=O)c2ccccc21	205 to 209
NC(Cc1ccc(Cl)cc1)=NO	96 to 98
CC(=O)NCc1ccc(S(=O)(=O)Cl)s1	80 to 82
CC(=O)c1ccc(OCC(=O)N2CCCC2)cc1	122 to 124
CCN(CC)S(=O)(=O)c1ccc(C)c(N)c1	108 to 112
Nc1nc2ncccn2n1	185 to 187
CNCC(O)COc1ccc(C(F)(F)F)cc1 (configuration not stated)	85 to 87
c1cnn(CC2CCNCC2)c1	45 to 47
COc1nc(Cl)nc(N2CCCCCC2)n1	114 to 116
